From patent publication US20090233299A1, “Physiogenomic Method for Predicting Statin Injury to Muscle and Muscle Side Effects” (GENOMAS, INC., priority 2005, published 2009)

Legend:
[1] = deaths associated with the drug before its withdrawal in August 2001; cited from earlier work
[2] = human, in vivo

Median CK [2] [u/l] | Structure (SMILES) | rhabdomyolysis-related deaths [1]
 | COCc1c(C(C)C)nc(C(C)C)c(/C=C/[C@@H](O)C[C@@H](O)CC(=O)O)c1-c1ccc(F)cc1 [cerivastatin] | approx. 100
77 | CCC(C)(C)C(=O)O[C@H]1C[C@@H](C)C=C2C=C[C@H](C)[C@H](CC[C@@H]3C[C@@H](O)CC(=O)O3)[C@H]21 [simvastatin] | 
84 | CC(C)c1c(C(=O)Nc2ccccc2)c(-c2ccccc2)c(-c2ccc(F)cc2)n1CC[C@@H](O)C[C@@H](O)CC(=O)O [atorvastatin] | 
